Measured values taken from patent US20230330053A1, “METHOD FOR TREATING INFECTIONS” (priority 2020, published 2023).
“Also recorded” adds a separate entry of the source.

How the values were obtained:
SARS-CoV-2 = experiment: Sx direct injection into SARS-CoV-2 suspension in MEM, Vero E6 plaque assay; format: cell-based
[1] = system: SARS-CoV-2 (USA-WA1/2020 strain); experiment: Direct injection into SARS-CoV-2 viral suspension, plaque assay on Vero E6 cells; format: cell-based; settings: for Effect on viral burden at the lower volumes: formula 2 and 5 μls, or corresponding propionic acid 1.4 and 3.9 μls, isoamyl hexanoates 0.6 and 1.1 μls
[2] = target: receptor binding domain (RBD) of the SARS-CoV-2 spike protein to ACE2 (Severe acute respiratory syndrome coronavirus 2, UniProt P0DTC2); settings: cited from earlier work

Compound | Reduction in activity of the virus (SARS-CoV-2; 1.1 μL alone, at about 100 min) [log] | Virus activity after 300 min relative to control (SARS-CoV-2; esters alone) | General reduction in virus activity within about 30 min (SARS-CoV-2; esters alone, over the range of concentrations tested) [log] | Reduction in activity over the course of 300 minutes (SARS-CoV-2; highest concentration of 4.6 μL alone) | Suppression of SARS-CoV-2 by the component alone ([1]; 37° C., all treatment arms) | Effect on viral burden at the lower volumes [1] | Volume necessary for a relative immediate inactivation of the virus (SARS-CoV-2; acid alone) | Volume necessary to get any appreciable activity (SARS-CoV-2; acid alone) | Decline in viral burden after 360 mins post-addition ([1]; 37° C., 1.4 μls alone) [log10 PFU/ml] | Decline in viral burden after 360 mins post-addition ([1]; 37° C., 3.9 μls alone) [log10 PFU/ml] | Reduction of activity on adding peptide to the virus [2] [%]
isoamyl hexanoates | ~1 | about equaled that of the control; also recorded: approximately equaled that of the control | ~1 | 1 order of magnitude | substantially less effective | minimal reduction of viral burden | – | – | – | – | –
CCC(=O)O [propionic acid] | – | – | – | – | – | minimal reduction of viral burden | at least 15.4 μL | up to 7.7 μL | 0.29 | 0.98 | –
GluGluLeuGlu | – | – | – | – | – | – | – | – | – | – | 34
